The values that follow come from patent US20260068885A1, “HERBICIDAL COMPOSITIONS” (BAYER AKTIENGESELLSCHAFT, priority 2022, published 2026).

Common to all, as to experiment: Post-emergence herbicidal action against harmful plants (greenhouse)
Common to all, as to format: in vivo

Test [1] concerns Sorghum halepense (SORHA). Here is the method:
(§1) Seeds of monocotyledonous and dicotyledonous weed and crop plants are laid out in sandy loam soil in wood-fibre pots, covered with soil and cultivated in a greenhouse under good growth conditions. 2 to 3 weeks after sowing, the test plants are treated at the one-leaf stage. The compounds of the invention, formulated in the form of wettable powders (WP) or as emulsion concentrates (EC), are then sprayed onto the green parts of the plants in the form of an aqueous suspension or emulsion at a water application rate equivalent to 600 to 800 l/ha, with addition of 0.2% wetting agent. After the test plants have been left to stand in the greenhouse under optimal growth conditions for about 3 weeks, the action of the preparations is assessed visually in comparison to untreated controls (herbicidal action in percent (%): 100% activity=the plants have died, 0% activity=like control plants). […] The tables below illustrate, in an illustrative manner, the post-emergence herbicidal action of the compounds of the invention, the herbicidal activity being stated in percent.
(§2) In the tables that follow, the abbreviations mean the following: • E: means the synergism value to be expected according to the Colby formula. • Δ SYN: means the difference between the actual and expected synergism value. • DAT: means days after treatment.

In a further test the test system is Emex australis (EMEAU). Conditions: EMEAU 21 DAT. On the procedure:
as §1, §2

Test [2] has as its system Xanthium strumarium (XANST). On the procedure: as §1, §2
Test [3] relates to Brachiaria platyphylla (BRAPP). Here is the method: as §1, §2
For test [4], the system named is Polygonum convolvulus (POLCO).
For test [5], the system named is Xanthium strumarium (XANST). Conditions: 10 DAT.
The subject of test [6] is Abutilon theophrasti (ABUTH). On the procedure: as §1, with “[…],” for “left to stand in the greenhouse under optimal growth conditions for about 3 weeks,”
as §2

The next test has as its system Solanum nigrum (SOLNI). On the procedure: as §1, with “[…],” for “left to stand in the greenhouse under optimal growth conditions for about 3 weeks,”
as §2

The next test relates to Cyperus iria (CYPIR). Here is the method: as §1, with “[…],” for “left to stand in the greenhouse under optimal growth conditions for about 3 weeks,”
as §2

The subject of test [7] is Erigeron bonariensis (ERIBO). Here is the method: as §1, with “[…],” for “left to stand in the greenhouse under optimal growth conditions for about 3 weeks,”
as §2

Test [8] concerns Pharbitis purpurea (PHBPU). Particulars: 5 g a.i./ha.
A further test relates to Setaria viridis (SETVI). On the procedure:
as §1, with “[…],” for “left to stand in the greenhouse under optimal growth conditions for about 3 weeks,”
as §2

In the case of `C=C[C@]1(C(=O)N[C@H]2C=C[C@@H](C(=O)OC)C2)CC(c2cc(F)cc(F)c2)=NO1` [P2, methyl (1S,4R)-4-[[(5S)-3-(3,5-difluorophenyl)-5-vinyl-4H-isoxazole-5-carbonyl]amino]cyclopent-2-ene-1-carboxylate], in [1] (application rate 0.3 g a.i./ha), the “Herbicidal efficacy [%] against SORHA 10 DAT” value is reported as 80%. For the same compound, the Herbicidal efficacy in the test on Emex australis (EMEAU) (0.3 g a.i./ha) was found to be 88%; with Emex australis (EMEAU) (1.2 g a.i./ha), 88%; in test [3] (BRAPP 21 DAT, 0.3 g a.i./ha) it was 85%; in test [4] (POLCO 21 DAT, 0.3 g a.i./ha) it was 90%; in test [6] (ABUTH 10 DAT, 0.3 g a.i./ha) it was 20%; in test [6] (ABUTH 10 DAT, 1.2 g a.i./ha), 30%. Also, the Herbicidal efficacy stood at 10% in test [6] (ABUTH 21 DAT, 0.3 g a.i./ha); 20% in test [6] (ABUTH 21 DAT, 1.2 g a.i./ha); 60% in the test with Solanum nigrum (SOLNI) (SOLNI 10 DAT, 0.3 g a.i./ha); 40% in the test with Solanum nigrum (SOLNI) (SOLNI 21 DAT, 1.2 g a.i./ha); 50% with Cyperus iria (CYPIR) (CYPIR 10 DAT, 0.3 g a.i./ha); 88% in the test with Cyperus iria (CYPIR) (CYPIR 10 DAT, 1.2 g a.i./ha). The Herbicidal efficacy with Cyperus iria (CYPIR) (CYPIR 21 DAT, 0.3 g a.i./ha) worked out at 40%; with Cyperus iria (CYPIR) (CYPIR 21 DAT, 1.2 g a.i./ha) it was 88%; in [7] (ERIBO 10 DAT, 0.3 g a.i./ha) it was 0%; in [7] (ERIBO 21 DAT, 0.3 g a.i./ha) it was 0%. Besides, the “Herbicidal efficacy [%] against XANST 21 DAT” value in test [2] (application rate 0.3 g a.i./ha) was 10%. Also, the “Herbicidal efficacy [%] against XANST 10 DAT” value in [5] (application rate 0.3 g a.i./ha) worked out at 20%.
`CCn1ncc(C(=O)c2ccc(S(C)(=O)=O)c(COCC(F)(F)F)c2Cl)c1OC(=O)c1cn(C)nc1C` [fenpyrazone]: the Herbicidal efficacy came out at 0% in [8] (PHBPU 10 DAT); 0% in [8] (PHBPU 21 DAT); 0% in the test with Emex australis (EMEAU) (20 g a.i./ha); 30% in [3] (BRAPP 10 DAT, 5 g a.i./ha); 75% in test [3] (BRAPP 10 DAT, 20 g a.i./ha); 10% in test [3] (BRAPP 21 DAT, 5 g a.i./ha). The Herbicidal efficacy in test [3] (BRAPP 21 DAT, 20 g a.i./ha) is reported as 20%; in [4] (POLCO 10 DAT, 5 g a.i./ha) it was 0%; in [4] (POLCO 21 DAT, 5 g a.i./ha), 0%; in test [4] (POLCO 21 DAT, 20 g a.i./ha), 10%; in test [6] (ABUTH 21 DAT, 20 g a.i./ha) it was 30%; with Cyperus iria (CYPIR) (CYPIR 10 DAT, 5 g a.i./ha), 30%. Besides, the Herbicidal efficacy was 20% in the test with Cyperus iria (CYPIR) (CYPIR 10 DAT, 20 g a.i./ha); 30% in the test with Cyperus iria (CYPIR) (CYPIR 21 DAT, 5 g a.i./ha); 10% in the test with Cyperus iria (CYPIR) (CYPIR 21 DAT, 20 g a.i./ha); 80% in test [7] (ERIBO 21 DAT, 5 g a.i./ha); 80% in test [7] (ERIBO 21 DAT, 20 g a.i./ha); 30% with Setaria viridis (SETVI) (SETVI 10 DAT, 5 g a.i./ha). In addition, the Herbicidal efficacy in the test on Setaria viridis (SETVI) (SETVI 10 DAT, 20 g a.i./ha) is 50%; in the test on Setaria viridis (SETVI) (SETVI 21 DAT, 5 g a.i./ha), 20%; with Setaria viridis (SETVI) (SETVI 21 DAT, 20 g a.i./ha) it was 20%. The “Herbicidal efficacy [%] against SORHA 10 DAT” value in test [1] (application rate 5 g a.i./ha) worked out at 20%; in test [1] (application rate 20 g a.i./ha), 30%. The “Herbicidal efficacy [%] against SORHA 21 DAT” value was 10% in [1] (application rate 5 g a.i./ha) and 20% in test [1] (application rate 20 g a.i./ha). The “Herbicidal efficacy [%] against XANST 21 DAT” value in [2] (application rate 20 g a.i./ha) is on record as 70%. Moreover, the “Herbicidal efficacy [%] against XANST 10 DAT” value in test [5] (application rate 20 g a.i./ha) came out at 88%.
